Laboratory results: patent US20240358693A1, “METHODS OF TREATING PAIN” (Aisa Pharma, Inc., priority 2023, published 2024)

Test system: participants with SSc-RP
Test: Average duration of weekly RP attacks (minutes)
Assay type: in vivo, human
Source text: The absolute change in average duration of weekly RP attacks from baseline to the end of each dosing period was and will be a secondary outcome variable. The sponsor-developed participant-informed diary was and will be used to record data. Average duration of weekly RP attacks is defined as the total duration of RP attacks divided by total number of RP attacks within the last 7 days of each dosing period. Total duration of RP attacks during the last 7 days of screening period divided by the total number of RP attacks will be used as baseline for the analysis of all periods. The variable will be calculated similar to frequency data as before.

[1] = Cilnidipine 10 mg, n=1, Excluding Outliers, ITT Part A
[2] = Cilnidipine 10 mg, n=1, ITT Part A
[3] = Cilnidipine 10 mg, Baseline RCS subgroup 1 (unnamed), ITT Part A
[4] = Cilnidipine 10 mg, Excluding Outliers, Baseline RCS subgroup 1 (unnamed), ITT Part A
[5] = Cilnidipine 10 mg, Excluding Outliers, ITT Population - Part A
[6] = Cilnidipine 10 mg, Excluding Outliers, by Baseline RCS, subgroup 1, ITT Population - Part A
[7] = Cilnidipine 10 mg, by Baseline RCS, subgroup 1, ITT Population - Part A
[8] = Cilnidipine 20 mg, n=2, Excluding Outliers, ITT Part A
[9] = Cilnidipine 20 mg, n=2, ITT Part A
[10] = Cilnidipine 20 mg, Baseline RCS subgroup 1 (unnamed), ITT Part A
[11] = Cilnidipine 20 mg, Excluding Outliers, Baseline RCS subgroup 1 (unnamed), ITT Part A

## COCCOC(=O)C1=C(C)NC(C)=C(C(=O)OC/C=C/c2ccccc2)C1c1cccc([N+](=O)[O-])c1 (stereo not shown) [Cilnidipine, cilnidipine]
[1]
  Average Duration of Weekly Symptomatic RP Attacks, Change from Baseline, Mean: -16.74 min
  Average Duration of Weekly Symptomatic RP Attacks, Change from Baseline, Median: -16.74 min
  Average Duration of Weekly Symptomatic RP Attacks, Mean: 31.64 min
  Average Duration of Weekly Symptomatic RP Attacks, Median: 31.64 min
  Average Duration of Weekly Symptomatic RP Attacks, Percent Change from Baseline, Mean: −34.60%
  Average Duration of Weekly Symptomatic RP Attacks, Percent Change from Baseline, Median: −34.60%
[2]
  Average Duration of Weekly Symptomatic RP Attacks, Change from Baseline, Mean: -16.74 min
  Average Duration of Weekly Symptomatic RP Attacks, Change from Baseline, Median: -16.74 min
  Average Duration of Weekly Symptomatic RP Attacks, Mean: 31.64 min
  Average Duration of Weekly Symptomatic RP Attacks, Median: 31.64 min
  Average Duration of Weekly Symptomatic RP Attacks, Percent Change from Baseline, Mean: −34.60%
  Average Duration of Weekly Symptomatic RP Attacks, Percent Change from Baseline, Median: −34.60%
[3]
  Average Duration of Weekly Symptomatic RP Attacks, Change from Baseline, Mean: -16.74 min
  Average Duration of Weekly Symptomatic RP Attacks, Change from Baseline, Median: -16.74 min
  Average Duration of Weekly Symptomatic RP Attacks, Mean: 31.64 min
  Average Duration of Weekly Symptomatic RP Attacks, Median: 31.64 min
  Average Duration of Weekly Symptomatic RP Attacks, Percent Change from Baseline, Mean: −34.60%
  Average Duration of Weekly Symptomatic RP Attacks, Percent Change from Baseline, Median: −34.60%
[4]
  Average Duration of Weekly Symptomatic RP Attacks, Change from Baseline, Mean: -16.74 min
  Average Duration of Weekly Symptomatic RP Attacks, Change from Baseline, Median: -16.74 min
  Average Duration of Weekly Symptomatic RP Attacks, Mean: 31.64 min
  Average Duration of Weekly Symptomatic RP Attacks, Median: 31.64 min
  Average Duration of Weekly Symptomatic RP Attacks, Percent Change from Baseline, Mean: −34.60%
  Average Duration of Weekly Symptomatic RP Attacks, Percent Change from Baseline, Median: −34.60%
[5]
  Average Duration of Weekly RP Attacks (All Attacks) Change from Baseline, Mean: -8.48 min
  Average Duration of Weekly RP Attacks (All Attacks) Change from Baseline, Median: -8.48 min
  Average Duration of Weekly RP Attacks (All Attacks) Percent Change from Baseline, Mean: −21.20%
  Average Duration of Weekly RP Attacks (All Attacks) Percent Change from Baseline, Median: −21.20%
  Average Duration of Weekly RP Attacks (All Attacks), Mean: 31.52 min
  Average Duration of Weekly RP Attacks (All Attacks), Median: 31.52 min
[6]
  Average Duration of Weekly RP Attacks (All Attacks) Change from Baseline, Mean: -8.48 min
  Average Duration of Weekly RP Attacks (All Attacks) Change from Baseline, Median: -8.48 min
  Average Duration of Weekly RP Attacks (All Attacks) Percent Change from Baseline, Mean: −21.20%
  Average Duration of Weekly RP Attacks (All Attacks) Percent Change from Baseline, Median: −21.20%
  Average Duration of Weekly RP Attacks (All Attacks), Mean: 31.52 min
  Average Duration of Weekly RP Attacks (All Attacks), Median: 31.52 min
Cilnidipine 10 mg, ITT Part A
  Average Duration of Weekly RP Attacks (All Attacks) Change from Baseline, Mean: -8.48 min
  Average Duration of Weekly RP Attacks (All Attacks) Change from Baseline, Median: -8.48 min
  Average Duration of Weekly RP Attacks (All Attacks) Percent Change from Baseline, Mean: −21.20%
  Average Duration of Weekly RP Attacks (All Attacks) Percent Change from Baseline, Median: −21.20%
  Average Duration of Weekly RP Attacks (All Attacks), Mean: 31.52 min
  Average Duration of Weekly RP Attacks (All Attacks), Median: 31.52 min
[7]
  Average Duration of Weekly RP Attacks (All Attacks) Change from Baseline, Mean: -8.48 min
  Average Duration of Weekly RP Attacks (All Attacks) Change from Baseline, Median: -8.48 min
  Average Duration of Weekly RP Attacks (All Attacks) Percent Change from Baseline, Mean: −21.20%
  Average Duration of Weekly RP Attacks (All Attacks) Percent Change from Baseline, Median: −21.20%
  Average Duration of Weekly RP Attacks (All Attacks), Mean: 31.52 min
  Average Duration of Weekly RP Attacks (All Attacks), Median: 31.52 min
[8]
  Average Duration of Weekly Symptomatic RP Attacks, Change from Baseline, Mean: -3.13 min
  Average Duration of Weekly Symptomatic RP Attacks, Change from Baseline, Median: -3.13 min
  Average Duration of Weekly Symptomatic RP Attacks, Mean: 16.73 min
  Average Duration of Weekly Symptomatic RP Attacks, Median: 16.73 min
  Average Duration of Weekly Symptomatic RP Attacks, Percent Change from Baseline, Mean: −31.05%
  Average Duration of Weekly Symptomatic RP Attacks, Percent Change from Baseline, Median: −31.05%
[9]
  Average Duration of Weekly Symptomatic RP Attacks, Change from Baseline, Mean: -3.13 min
  Average Duration of Weekly Symptomatic RP Attacks, Change from Baseline, Median: -3.13 min
  Average Duration of Weekly Symptomatic RP Attacks, Mean: 16.73 min
  Average Duration of Weekly Symptomatic RP Attacks, Median: 16.73 min
  Average Duration of Weekly Symptomatic RP Attacks, Percent Change from Baseline, Mean: −31.05%
  Average Duration of Weekly Symptomatic RP Attacks, Percent Change from Baseline, Median: −31.05%
[10]
  Average Duration of Weekly Symptomatic RP Attacks, Change from Baseline, Mean: -3.13 min
  Average Duration of Weekly Symptomatic RP Attacks, Change from Baseline, Median: -3.13 min
  Average Duration of Weekly Symptomatic RP Attacks, Mean: 16.73 min
  Average Duration of Weekly Symptomatic RP Attacks, Median: 16.73 min
  Average Duration of Weekly Symptomatic RP Attacks, Percent Change from Baseline, Mean: −31.05%
  Average Duration of Weekly Symptomatic RP Attacks, Percent Change from Baseline, Median: −31.05%
[11]
  Average Duration of Weekly Symptomatic RP Attacks, Change from Baseline, Mean: -3.13 min
  Average Duration of Weekly Symptomatic RP Attacks, Change from Baseline, Median: -3.13 min
  Average Duration of Weekly Symptomatic RP Attacks, Mean: 16.73 min
  Average Duration of Weekly Symptomatic RP Attacks, Median: 16.73 min
  Average Duration of Weekly Symptomatic RP Attacks, Percent Change from Baseline, Mean: −31.05%
  Average Duration of Weekly Symptomatic RP Attacks, Percent Change from Baseline, Median: −31.05%
Cilnidipine 20 mg, Excluding Outliers, ITT Population - Part A
  Average Duration of Weekly RP Attacks (All Attacks) Change from Baseline, Mean: -1.09 min
